Molecular target: T1, human MRGPRX2 (Homo sapiens, UniProt Q96LB1)
T1 construct: expressed in transfected cells; host or cells: CHO cells, stably transfected (G418 and Hygromycin B selection)
T1 sequence (Q96LB1 1-330): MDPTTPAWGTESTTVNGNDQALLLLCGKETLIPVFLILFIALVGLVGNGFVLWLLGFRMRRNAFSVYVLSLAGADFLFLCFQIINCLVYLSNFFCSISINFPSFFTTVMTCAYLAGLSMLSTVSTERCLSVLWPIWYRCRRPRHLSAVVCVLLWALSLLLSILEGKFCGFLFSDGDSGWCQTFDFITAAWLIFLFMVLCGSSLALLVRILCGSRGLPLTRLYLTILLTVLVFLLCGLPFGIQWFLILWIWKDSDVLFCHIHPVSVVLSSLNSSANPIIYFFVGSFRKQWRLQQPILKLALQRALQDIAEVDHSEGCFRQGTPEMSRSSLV
Experiment: MRGPRX2 activity: IP-One Gq HTRF assay in CHO cells, antagonism versus 0.3 uM Cortistatin-14
Format: cell-based
Settings: versus 0.3 uM Cortistatin-14 agonist, CHO cells expressing human MRGPRX2, read-out: MRGPRX2 Antagonist Activity
Method in brief: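 CHO cells stably expressing human MRGPRX2 were treated with a 10-point compound curve (30 uM top, 1:3) plus 0.3 μM Cortistatin-14 in LiCl-containing Tris buffer, pH 8. Incubation was 1 h at 37 °C then 1 h at room temperature; IP-1 was detected by HTRF and IC50 came from the HTRF ratio.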

IC50 [µM]	Compound
0.1 to 0.5	CC(c1ccc(S(C)(=O)=O)cc1)c1c(F)ccc2c1NC(NCc1cccc(F)c1)=NS2(=O)=O (stereo not shown) [Compound 22-20, 6-fluoro-3-((3-fluorobenzyl)amino)-5-(1-(4-(methylsulfonyl)phenyl)ethyl)-4H-benzo[e][1,2,4]thiadiazine 1,1-dioxide]
< 0.1	O=S1(=O)N=C(NCc2ncccc2Cl)Nc2c1ccc(F)c2Oc1ccccc1Cl [Compound 2-2, 5-(2-chlorophenoxy)-3-(((3-chloropyridin-2-yl)methyl)amino)-6-fluoro-4H-benzo[e][1,2,4]thiadiazine 1,1-dioxide]
< 0.1	CC(c1ccccc1F)c1c(F)ccc2c1NC(NCc1cc(F)ccc1F)=NS2(=O)=O (stereo not shown) [Compound 9-3, 3-((2,5-difluorobenzyl)amino)-6-fluoro-5-(1-(2-fluorophenyl)ethyl)-4H-benzo[e][1,2,4]thiadiazine 1,1-dioxide]
0.1 to 0.5	O=S1(=O)N=C(NCc2ncccc2F)Nc2c1ccc(F)c2Oc1cccc(F)c1 [Compound 2-8, 6-fluoro-5-(3-fluorophenoxy)-3-(((3-fluoropyridin-2-yl)methyl)amino)-4H-benzo[e][1,2,4]thiadiazine 1,1-dioxide]
0.1 to 0.5	O=S1(=O)N=C(NCc2ncccc2F)Nc2c1ccc(F)c2Oc1c(F)cccc1Cl [Compound 1-17, 5-(2-chloro-6-fluorophenoxy)-6-fluoro-3-(((3-fluoropyridin-2-yl)methyl)amino)-4H-benzo[e][1,2,4]thiadiazine 1,1-dioxide]
> 2.5	Cc1ccc(NC2=NS(=O)(=O)c3ccc(F)c(Oc4ccccc4Cl)c3N2)cc1 [Compound 1-13, 5-(2-chlorophenoxy)-6-fluoro-3-(p-tolylamino)-4H-benzo[e][1,2,4]thiadiazine 1,1-dioxide]
1 to 2.5	COc1ccc(Oc2c(F)ccc3c2NC(NCc2ncccc2F)=NS3(=O)=O)cc1 [Compound 2-11, 6-fluoro-3-(((3-fluoropyridin-2-yl)methyl)amino)-5-(4-methoxyphenoxy)-4H-benzo[e][1,2,4]thiadiazine 1,1-dioxide]
1 to 2.5	N#Cc1ccc(Oc2c(F)ccc3c2NC(NCc2ncccc2F)=NS3(=O)=O)cc1 [Compound 2-12, 4-((6-fluoro-3-(((3-fluoropyridin-2-yl)methyl)amino)-1,1-dioxido-4H-benzo[e][1,2,4]thiadiazin-5-yl)oxy)benzonitrile]
0.1 to 0.5	O=S1(=O)N=C(NCc2cccc(F)n2)Nc2c1cc(F)c(F)c2Cc1ccccc1Cl [Compound 4-11, 5-(2-chlorobenzyl)-6,7-difluoro-3-(((6-fluoropyridin-2-yl)methyl)amino)-4H-benzo[e][1,2,4]thiadiazine 1,1-dioxide]
0.1 to 0.5	[2H]C([2H])(NC1=NS(=O)(=O)c2ccc(F)c(Oc3ccccc3Cl)c2N1)c1ccccc1 [Compound 1-44, 5-(2-chlorophenoxy)-6-fluoro-3-((phenylmethyl-d2)amino)-4H-benzo[e][1,2,4]thiadiazine 1,1-dioxide]
< 0.1	O=S1(=O)N=C(NCc2ncccc2F)Nc2c1ccc(Cl)c2Oc1cccc(Cl)c1Cl [Compound 1-50, 6-chloro-5-(2,3-dichlorophenoxy)-3-(((3-fluoropyridin-2-yl)methyl)amino)-4H-benzo[e][1,2,4]thiadiazine 1,1-dioxide]
< 0.1	C=C(c1ccccc1F)c1cccc2c1NC(NCc1ncccc1Cl)=NS2(=O)=O [Compound 13-1, 3-(((3-chloropyridin-2-yl)methyl)amino)-5-(1-(2-fluorophenyl)vinyl)-4H-benzo[e][1,2,4]thiadiazine 1,1-dioxide]
< 0.1	Cc1c(F)cccc1CNC1=NS(=O)(=O)c2ccc(F)c(C(C)c3cccc(F)c3Cl)c2N1 (stereo not shown) [Compound 7-2, 5-(1-(2-chloro-3-fluorophenyl)ethyl)-6-fluoro-3-((3-fluoro-2-methylbenzyl)amino)-4H-benzo[e][1,2,4]thiadiazine 1,1-dioxide]
< 0.1	CC(c1ccccc1F)c1c(F)ccc2c1NC(NCc1ccccc1F)=NS2(=O)=O (stereo not shown) [Compound 7-5, 6-fluoro-3-((2-fluorobenzyl)amino)-5-(1-(2-fluorophenyl)ethyl)-4H-benzo[e][1,2,4]thiadiazine 1,1-dioxide]
< 0.1	O=S1(=O)N=C(NCc2ncccc2F)Nc2c1cc(F)c(F)c2Oc1ccccc1Cl [Compound 1-5, 5-(2-chlorophenoxy)-6,7-difluoro-3-(((3-fluoropyridin-2-yl)methyl)amino)-4H-benzo[e][1,2,4]thiadiazine 1,1-dioxide]
> 2.5	C[C@@H](NC1=NS(=O)(=O)c2ccc(F)c(Oc3ccccc3Cl)c2N1)c1ccccc1F [Compound 2-3, (R)-5-(2-chlorophenoxy)-6-fluoro-3-((1-(2-fluorophenyl)ethyl)amino)-4H-benzo[e][1,2,4]thiadiazine 1,1-dioxide]
< 0.1	CC(c1ccccc1F)c1c(F)ccc2c1NC(NCc1ccc(F)cc1F)=NS2(=O)=O (stereo not shown) [Compound 7-6, 3-((2,4-difluorobenzyl)amino)-6-fluoro-5-(1-(2-fluorophenyl)ethyl)-4H-benzo[e][1,2,4]thiadiazine 1,1-dioxide]
< 0.1	Cc1ccc(CNC2=NS(=O)(=O)c3cccc(Cc4ccccc4Cl)c3N2)cc1C [Compound 12-13, 5-(2-chlorobenzyl)-3-((3,4-dimethylbenzyl)amino)-4H-benzo[e][1,2,4]thiadiazine 1,1-dioxide]
< 0.1	O=S1(=O)N=C(NCc2ccccc2F)Nc2c(Cc3ccccc3Cl)cccc21 [Compound 6-2, 5-(2-chlorobenzyl)-3-((2-fluorobenzyl)amino)-4H-benzo[e][1,2,4]thiadiazine 1,1-dioxide]
0.1 to 0.5	O=S1(=O)N=C(NCc2cccc(F)c2)Nc2c1cc(F)c(F)c2Cc1ccccc1Cl [Compound 4-12, 5-(2-chlorobenzyl)-6,7-difluoro-3-((3-fluorobenzyl)amino)-4H-benzo[e][1,2,4]thiadiazine 1,1-dioxide]
< 0.1	COc1ccccc1CNC1=NS(=O)(=O)c2cccc(Cc3ccccc3Cl)c2N1 [Compound 12-24, 5-(2-chlorobenzyl)-3-((2-methoxybenzyl)amino)-4H-benzo[e][1,2,4]thiadiazine 1,1-dioxide]
< 0.1	O=S1(=O)N=C(NCc2ccc(F)cc2F)Nc2c1ccc(F)c2Oc1ccccc1Cl [Compound 1-29, 5-(2-chlorophenoxy)-3-((2,4-difluorobenzyl)amino)-6-fluoro-4H-benzo[e][1,2,4]thiadiazine 1,1-dioxide]
< 0.1	O=S1(=O)N=C(NCc2cccc(F)n2)Nc2c1ccc(Cl)c2Oc1ccccc1Cl [Compound 1-46, 6-chloro-5-(2-chlorophenoxy)-3-(((6-fluoropyridin-2-yl)methyl)amino)-4H-benzo[e][1,2,4]thiadiazine 1,1-dioxide]
< 0.1	O=C(c1ccccc1Cl)c1cccc2c1NC(NCc1ccccc1F)=NS2(=O)=O [Compound 16-2, (2-chlorophenyl)(3-((2-fluorobenzyl)amino)-1,1-dioxido-4H-benzo[e][1,2,4]thiadiazin-5-yl)methanone]
0.1 to 0.5	O=S1(=O)N=C(NCc2ncccc2F)Nc2c1ccc(F)c2/C=C/c1ccccc1F [Compound 14-2, (E)-6-fluoro-3-(((3-fluoropyridin-2-yl)methyl)amino)-5-(2-fluorostyryl)-4H-benzo[e][1,2,4]thiadiazine 1,1-dioxide]

From patent publication US20250170141A1, “MRGPRX2 MODULATORS AND RELATED METHODS OF TREATMENT” (Escient Pharmaceuticals, Inc., priority 2023, published 2025)
